How the values were obtained:
smallflower flatsedge = assay: Test B flood test smallflower flatsedge; type: in vivo, Cyperus difformis; details: for Plant response rating, S. Flatsedge (0 to 10 scale, 0 is no effect, 10 is complete control): Rate 62 g/ha, Pre-emergence; for Plant response rating, S. Flatsedge (0 to 10 scale, 0 is no effect, 10 is complete control) / S. Flatsedge plant response rating (0 to 10 scale, 0 is no effect, 10 is complete control): flood test species, visual evaluation after twelve to sixteen days; for S. Flatsedge plant response rating (0 to 10 scale, 0 is no effect, 10 is complete control): Rate 125 g/ha, under heading Pre-emergence
Procedure: (§1) At the same time, these crop and weed species were also treated with postemergence applications of test chemicals formulated in the same manner. Plants ranged in height from 2 to 18 cm (1- to 4-leaf stage) for postemergence treatments. Plant species in the flood test consisted of rice (Oryza sativa), smallflower flatsedge (Cyperus difformis), duck salad (Heteranthera limosa) and bamyardgrass (Echinochloa crus-galli) grown to the 2-leaf stage for testing. Treated plants and controls were maintained in a greenhouse for twelve to sixteen days, after which all species were compared to controls and visually evaluated. Plant response ratings, summarized in Table B, are based on a scale of 0 to 10 where 0 is no effect and 10 is complete control. A dash (−) response means no test result.

duck salad = assay: Test B flood test duck salad; type: in vivo, Heteranthera limosa; details: for Plant response rating, Ducksalad (0 to 10 scale, 0 is no effect, 10 is complete control): Rate 62 g/ha, Pre-emergence; for Plant response rating, Ducksalad (0 to 10 scale, 0 is no effect, 10 is complete control) / Ducksalad plant response rating (0 to 10 scale, 0 is no effect, 10 is complete control): flood test species, visual evaluation after twelve to sixteen days; for Ducksalad plant response rating (0 to 10 scale, 0 is no effect, 10 is complete control): Rate 125 g/ha, under heading Pre-emergence
Procedure: as §1

bamyardgrass = assay: Test B flood test barnyardgrass; type: in vivo, Echinochloa crus-galli; details: for Plant response rating, Barnyardgrass (0 to 10 scale, 0 is no effect, 10 is complete control): Rate 62 g/ha, Pre-emergence; for Plant response rating, Barnyardgrass (0 to 10 scale, 0 is no effect, 10 is complete control) / Barnyardgrass plant response rating (0 to 10 scale, 0 is no effect, 10 is complete control): flood test species, visual evaluation after twelve to sixteen days; for Barnyardgrass plant response rating (0 to 10 scale, 0 is no effect, 10 is complete control): Rate 125 g/ha, under heading Pre-emergence
Procedure: as §1

rice = assay: Test B flood test rice; type: in vivo, Oryza sativa
How it was run: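 Plants were grown to the 2-leaf stage before treatment with test chemical, then held in a greenhouse for twelve to sixteen days. Injury was visually rated against untreated controls on a 0–10 scale, where 0 is no effect and 10 is complete control.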

[1] = Rate 250 g/ha, Pre-emergence (flood test species), scale 0 to 10, 0 is no effect, 10 is complete control
[2] = Rate 500 g/ha, Pre-emergence section of Table B, 0 to 10 scale (0 no effect, 10 complete control)

CCCCCCn1c(=O)on(C(=O)N(c2ccc(Cl)cc2)C(C)C)c1=O [Compound 529]
Plant response rating, S. Flatsedge (0 to 10 scale, 0 is no effect, 10 is complete control) (smallflower flatsedge): 0
S. Flatsedge plant response rating (0 to 10 scale, 0 is no effect, 10 is complete control) (smallflower flatsedge): 0
S. Flatsedge plant response rating (smallflower flatsedge; [1]): 0
S. Flatsedge plant response rating (smallflower flatsedge; [2]): 0
Plant response rating, Ducksalad (0 to 10 scale, 0 is no effect, 10 is complete control) (duck salad): 0
Ducksalad plant response rating (0 to 10 scale, 0 is no effect, 10 is complete control) (duck salad): 0
Ducksalad plant response rating (duck salad; [1]): 0
Ducksalad plant response rating (duck salad; [2]): 0
Plant response rating, Barnyardgrass (0 to 10 scale, 0 is no effect, 10 is complete control) (bamyardgrass): 0
Barnyardgrass plant response rating (0 to 10 scale, 0 is no effect, 10 is complete control) (bamyardgrass): 0
Barnyardgrass plant response rating (bamyardgrass; [1]): 0
Barnyardgrass plant response rating (bamyardgrass; [2]): 2

CC(C)N(C(=O)n1oc(=O)n(CC2CC2)c1=O)c1ccc(Cl)cc1 [Compound 539]
Plant response rating, Rice (0 to 10 scale, 0 is no effect, 10 is complete control) (rice; Rate 62 g/ha, flood test species, Pre-emergence, visual evaluation after twelve to sixteen days): 0
Rice plant response rating (0 to 10 scale, 0 is no effect, 10 is complete control) (rice; Rate 125 g/ha, under heading Pre-emergence, flood test species, visual evaluation after twelve to sixteen days): 0
Rice plant response rating (rice; [1]): 0
Rice plant response rating (rice; [2]): 0
Plant response rating, S. Flatsedge (0 to 10 scale, 0 is no effect, 10 is complete control) (smallflower flatsedge): 0
S. Flatsedge plant response rating (0 to 10 scale, 0 is no effect, 10 is complete control) (smallflower flatsedge): 0
S. Flatsedge plant response rating (smallflower flatsedge; [1]): 0
S. Flatsedge plant response rating (smallflower flatsedge; [2]): 0
Plant response rating, Ducksalad (0 to 10 scale, 0 is no effect, 10 is complete control) (duck salad): 0
Ducksalad plant response rating (0 to 10 scale, 0 is no effect, 10 is complete control) (duck salad): 0
Ducksalad plant response rating (duck salad; [1]): 0
Ducksalad plant response rating (duck salad; [2]): 0
Plant response rating, Barnyardgrass (0 to 10 scale, 0 is no effect, 10 is complete control) (bamyardgrass): 0
Barnyardgrass plant response rating (0 to 10 scale, 0 is no effect, 10 is complete control) (bamyardgrass): 0
Barnyardgrass plant response rating (bamyardgrass; [1]): 0
Barnyardgrass plant response rating (bamyardgrass; [2]): 0

Source: patent US6737383B1, “Herbicidal oxadiazolidines” (priority 1999, dated 2004)
